{
  "source": "patent US20110188043A1",
  "about": "“METHOD AND APPARATUS FOR MONITORING PROCESSES IN LIVING CELLS” (Yissum, Research Development Company of The Hebrew …, priority 2007, published 2011)",
  "key": {"[1]": {"tested_on": "Melanoma cells", "test": "Time-lapse confocal imaging of fluorescently tagged-Tfn uptake", "format": "cell-based, human", "procedure": "Melanoma cells were cultured to ˜50% confluence on glass bottom culture dishes (35 mm dish, 14 mm Microwell; MatTek, Co., MA, USA). Cells were first exposed to growth medium lacking serum for 3 hrs prior to the experiment, and then washed three times with internalization buffer (150 mM NaCl, 20 mM Hepes, pH 7.4, 1 mM CaCl2, 5 mM KCl, 1 mM MgCl2, 10 mM Glucose). Following the last wash, internalization buffer containing 0.1 μM sulforhodamine green (SRG) (Biotium, Hayward, Calif.) was added to the medium. Cells were imaged (FIG. 10A—confocal imaging of live cells performed simultaneously in the green and red channels, about 30 sec (designated time 0) after cell exposure to the ligand) with an Olympus FV-1000 confocal microscope equipped with an on-scope incubator (Life Image Services, Bazel, Switzerland), which controls temperature and humidity, and provides an atmosphere of 5% CO2. A 60×/NA=1.35 oil immersion objective was used. […] First, one plane of focus was acquired, and Rhodamine Red'-holo Tfn (5 μg/ml; Jackson ImmunoResearch) was introduced into the imaging buffer. Confocal images of both the SRG (Ex: 514 nm; Em: 535-565 nm) and Rhodamine Red-holo-Tfn (Ex: 543 nm; Em: 560-660 nm) were acquired from the same section every 10 or 20 sec. A similar protocol was used for Lissamine Rhodamine-apo-Tfn, except that the SRG was imaged using 488-nm excitation and a 505-525-nm emission filter. The FV1000 was equipped with the ZDC (Zero Drift Controller) option, to maintain the same focus plane throughout the entire period of imaging.\nThe images were processed using ImageJ [Rasband, W. S., ImageJ, U.S. National Institutes of Health, Bethesda, Md., USA, http://rsb.info.nih.gov/ij/, 1997-2007] to determine fluorescence levels within cells as follows: First the despeckle filter (essentially a median filter with a 3×3 kernel) was applied to remove point noise and the SRG image was used to determine the cell boundaries; then, the average fluorescence intensity inside the cells (F(t)intracellular) was divided by the average fluorescence intensity in a region of interest outside the cells (<F(t)>extracellular). This procedure was adopted based on the assumption that there is insignificant depletion of labeled Tfn in the medium, so that the fluorescence in the medium should remain constant.\nThen, the fluorescence levels within the bounded area were determined in the red channels for each time frame. Background fluorescence levels measured before the addition of Rhodamine Red-Tfn were subtracted from values measured in the same channel during ligand introduction."}, "[2]": {"tested_on": "Human melanoma (MEL 1106) cells", "test": "FTIR-SPR measurements of Tfn-induced SPR signal shifts in a cell monolayer on an Au-coated ZnS prism", "format": "cell-based", "settings": "for SPR signal shift on cell exposure to ligand: 5 μg/ml of Tfn, cells on Au-coated ZnS prism; for change in the average refraction index of cells Δn: calculated as Δn=ΔR/S at 4425 cm^−1", "procedure": "Surface plasmon (SP) was excited using Kretchmann's geometry as illustrated in FIG. 3A employing the Bruker FTIR spectrometer (Equinox 55—Bruker Optik GmbH, Ettlingen, Germany) equipped with a KBr beam splitter as mid-IR source, and a right-angle ZnS prism having a 20×40 mm base (ISP Optics, Inc., Irvington, N.Y, US) coated with an 18-nm-thick gold film (electron-beam evaporation). Cells were cultured on the gold surface, as described below. The prism and cells were attached to a flow chamber mounted on a goniometer, in such way that the cells on the gold-coated base faced the flow chamber's volume (0.5 ml). The flow chamber was filled with cell culture medium, resulting in direct contact between the medium and the gold layer, or cells cultured on that layer. The medium was passed through the chamber at a constant flow rate (5 μl/min) during the entire experiment, using a motorized bee syringe pump equipped with a variable speed controller. The temperature of the medium flowing through the chamber was controlled (±0.1° C.). The infrared light from the output window of the FTIR instrument passed through a collimator, consisting of a 1-mm diameter pinhole mounted between two gold coated off-axis parabolic mirrors, m1 and m2, with focal lengths of about 76.2 mm and 25.4 mm, respectively, along with a grid polarizer and an iris. The collimated beam (˜4 mm in diameter) was reflected from the ZnS prism and focused by an additional parabolic mirror, m3, onto a liquid-nitrogen-cooled MCT (HgCdTe) detector, mounted on the goniometer.\nHuman melanoma (MEL 1106) cells were cultured on a 10-cm dish in Dolbecco's modified Eagle's medium (D-MEM, Biological Industries, Israel), supplemented with 4.5 g/l D-glucose, 10% antibiotics, and 10% fetal calf serum, as previously described for HeLa cells [Ziblat et al., 2006]. These cells were used in the SPR experiments, and their culture on Au coated prisms was performed as follows: upon reaching 70% confluence, cells were detached from the dish by trypsin C (0.05% Trypsin/EDTA in Puck's saline A; Biological Industries, Israel) treatment, and brought to a cell density of about 1.8×10^5 cells/ml in complete growth medium. With reference to FIG. 7, three milliliters of cell suspension 29 were seeded on top of the Au-coated ZnS prism 27 mounted onto a home-made polycarbonate holder, such that the cell suspension 29 covered the entire prism's base 28. Cells were allowed to attach for at least 3 hrs in a CO2 incubator (5% CO2, 37° C., 90% humidity). Thereafter, growth medium (5 ml) was added and the prism 27 was placed in a CO2 incubator for an additional 2-3 days, until a uniform and nearly confluent monolayer of cells (above 70%; ˜30 cells per 1000 μm^2) covered the Au-surface.\nIn the initial phase of each experiment, cells cultured on an Au-coated prism were exposed to serum-free DMEM for 3 hours at […] for depleting the cells from internal pools of Tfn contributed by the serum. The prism with the cultured cells was then attached to the flow chamber, which was rapidly filled with pre-warmed (37° C.) minimal essential medium (MEM) containing Hank's salts (GIBCO), 20 mM Hepes, pH 7.2, and 5 μg/ml BSA (MEM-BSA). The temperature in the flow chamber was adjusted to 37° C.±0.1° C., unless otherwise indicated. Thereafter, the angle of incidence in the SPR configuration was set to θ=35.5°. […] These parameters were optimal, allowing maximal sensitivity (S=ΔR/Δn), and reasonable SP penetration depth/propagation length.\nThe reflectivity of the s-polarized beam was used as a background for subsequent measurements. The SPR signal is the ratio of the reflectivities obtained for the p-polarized and s-polarized beams. The FTIR-SPR set-up of the invention repeatedly measured the reflectivity spectra. This was done every 25 seconds with a 4-cm^−1 wavenumber resolution and with 16-scan averaging. The SPR measurements were carried out continuously for 15-20 minutes, until a stable SPR signal was recorded. […]"}, "[3]": {"tested_on": "HeLa cells", "test": "FTIR-SPR of cholesterol enrichment/depletion of the cell membrane", "format": "cell-based, human", "settings": "λ=1.08 μm, 37° C.; mβCD-chol at t=0, mβCD at t=15 for 3 min", "text": "The penetration of cholesterol into the plasma membrane of the HeLa cells was studied with the FTIR-SPR technique of the invention (similar studies using SPR in the visible range were reported by Besenicar et al., [Biochimica et Biophysica Acta-Biomembranes, 177, 175 (2008).]. It is well-known that cholesterol enters mostly into the plasma membrane rather than into cytoplasm. Therefore, to achieve high sensitivity to membrane-related events, the near-infrared wavelength range was chosen, λsp=1÷1:08 μm, characterized by a relatively low SPR penetration depth.\nThe HeLa cells were grown on an SF-11 glass prism coated with 35-nm-thick gold film. The prism with the cells was mounted into a flow chamber and was equilibrated in growth medium for 5-7 minutes at 37° C. Then 10 mM of mfβCD-chol (methyl-beta-cyclodextrin loaded with cholesterol) was added, which is known to enrich the cells by cholesterol. The FTIR-SPR spectra was measured before and after adding the drugs. […] This corresponds to a refractive index increase because cholesterol has a higher refractive index than water. In contrast, when a similar chemical, mβCD, which is not loaded with cholesterol, was added (at t=15 for 3 min) to a growth solution the SPR is blue-shifted, which corresponds to a refractive index decrease. […]"}, "[4]": {"tested_on": "Melanoma 1106 cell", "test": "FTIR-SPR of ferrotransferrin uptake with long-wavelength surface plasmon", "format": "cell-based, human", "settings": "λ=2.54 μm", "text": "The FTIR-SPR technique of the invention was applied to study transferrin-induced clathrin-mediated endocytic processes that introduce Fe ions into the cell.\nThe same process was studied using a long-wavelength surface plasmon at λ=2.54 μm. Its penetration depth, δzd=1.2 μm (FIG. 20), is deep enough to penetrate the cells, although it senses mostly the cell periphery. […] The kinetics of the SPR reflectivity closely follows the fluorescence kinetics in the cell periphery (FIG. 27A), as expected. […] The obvious advantage of the SPR technique is that it is label-free. […] This rules out the possibility that the SPR shift results from accumulation of organic molecules in the cell (this would increase the refractive index). […] This is consistent with the biological picture of endocytosis that includes transferrin-induced vesicular transport."}, "[5]": {"tested_on": "human red blood cells (RBCs)", "test": "FTIR-SPR measurement of glucose uptake by erythrocyte suspension", "format": "cell-based", "settings": "λ=4 μm, 22° C., erythrocyte suspension in PBS", "procedure": "In the following section measurements of glucose uptake by erythrocyte suspension in the PBS medium are described. Briefly, fresh human red blood cells (RBCs) were washed four times in PBS by centrifugation. The supernatant and buffy coat cells were discarded and RBCs were resuspended in glucose-free PBS to yield ce=5% v/v. For complete glucose depletion, cells were incubated for 60 min at 22° C. in PBS. Then, RBCs were centrifuged and resuspended in fresh PBS containing the required concentrations of D-glucose supplemented with L-glucose, to keep the total glucose concentration (osmolarity) equal to 20 mM. The SPR measurements were performed at 22° C. to slow down cellular glycolysis. The measurements were performed using a ZnS prism coated with a 12-nm thick Au film. […] Although the sensitivity at this wavelength is low (FIG. 19A), the use of such a long wavelength here is mandatory in order to sense the processes inside erythrocytes. The average distance between the erythrocytes is Dece^1/3=17 μm. The surface plasmon propagation length, Lx=30 μm (FIG. 21), exceeds the distance between erythrocytes."}},
  "data": [
    {"compound": "Rhodamine Red-holo-Tfn: Rhodamine Red tagged holo-Tfn (Jackson ImmunoResearch) used for fluorescence imaging [reference compound]", "values": [
      {"measurement": "ligand internalization rates (fluorescence)", "setting": "[1]; lower temperatures (30° C. vs 37° C.)", "value": "reduced ligand internalization rates"}
    ]},
    {"compound": "CN(C)CCCN1c2ccccc2Sc2ccc(Cl)cc21", "note": "[CPZ, Chlorpromazine, reference compound]", "values": [
      {"measurement": "SPR signal shift immediately after cell exposure to the drug", "setting": "[2]; 100 μM CPZ in MEM/BSA, 37° C.", "value": "sizeable shift of the SPR signal towards shorter wavelengths"},
      {"measurement": "effect on holo-Tfn-induced SPR signal shifts", "setting": "[2]; 100 μM CPZ, then approximately 90 min washout, compared with untreated cells", "value": "diminished SPR signal shifts"},
      {"measurement": "blue shift in the SPR signal relative to that induced by Tfn", "setting": "[2]; CPZ treatment per se", "value": 10, "unit": "times"},
      {"measurement": "washout time after which a steady SPR signal was measured", "setting": "[2]; CPZ washout with plain MEM/BSA", "value": "~30", "unit": "min"},
      {"measurement": "SPR signal shift on removal (washout) with plain MEM/BSA", "setting": "[2]", "value": "ongoing decrease"},
      {"measurement": "effect on rate of holo-Tfn uptake into the cells (fluorescence)", "setting": "[1]; CPZ treatment followed by 90 min of drug washout, 37° C.", "value": "significantly decreased the rate of holo-Tfn uptake"}
    ]},
    {"compound": "methyl-β-cyclodextrin [mβCD, reference compound]", "values": [
      {"measurement": "effect on holo-Tfn-induced SPR signal shift (cholesterol depletion / replenishment)", "setting": "[2]; mβCD 3 mM for 15 min at 37° C., rinsed, then holo-Tfn", "value": "diminished compared with untreated cells"},
      {"measurement": "SPR shift after addition to growth medium", "setting": "[3]", "value": "blue-shifted"}
    ]},
    {"compound": "holo-Tfn: Human apo-Tfn (transferrin) loaded with iron, which converts it to holo-Tfn", "values": [
      {"measurement": "SPR signal shift on cell exposure to ligand", "setting": "[2]; 37° C.", "value": "time-dependent shifts of the SPR minimum towards shorter wavelengths"},
      {"measurement": "Tfn-induced SPR shifts", "setting": "[2]; 19° C.", "value": "diminished SPR shifts"},
      {"measurement": "Tfn-induced SPR shifts", "setting": "[2]; 30° C.", "value": "larger SPR shifts"},
      {"measurement": "Tfn-induced SPR shifts", "setting": "[2]; 37° C.", "value": "maximal shifts"},
      {"measurement": "change in the average refraction index of cells Δn", "setting": "[2]", "value": "−4*10^−4"},
      {"measurement": "time over which the SPR signal increased before levelling off", "setting": "[2]; holo-Tfn, 37° C.", "value": "2 to 3", "unit": "min"},
      {"measurement": "SPR signal shift on removal (washout) with plain MEM/BSA", "setting": "[2]", "value": "red-shift in the SPR signal"},
      {"measurement": "cell fluorescence intensity over time", "setting": "[1]; holo-Ft tagged with Rhodamine Red, Melanoma 1106 cell", "value": "fluorescence intensity increases and then achieves saturation"},
      {"measurement": "SPR shift upon introduction into the solution", "setting": "[4]", "value": "blue-shifted"}
    ]},
    {"compound": "apo-Tfn: Human apo-Tfn dialyzed against sodium citrate to remove possible iron traces; tagged with Lissamine Rhodamine for imaging", "values": [
      {"measurement": "SPR signal shift on cell exposure to ligand", "setting": "[2]; 37° C.", "value": "small SPR signal shifts"},
      {"measurement": "change in the average refraction index of cells Δn", "setting": "[2]", "value": "smaller than −1*10^−4"},
      {"measurement": "accumulation of tagged Tfn fluorescence within the cells", "setting": "[1]; 37° C.", "value": "accumulated within the cells at slower rates"}
    ]},
    {"compound": "O=C[C@H](O)[C@@H](O)[C@H](O)[C@H](O)CO", "note": "[D-glucose]", "values": [
      {"measurement": "reflectivity in the SPR regime upon addition", "setting": "[5]", "value": "reflectivity in the SPR regime rapidly increases with time, until saturation is reached"}
    ]}
  ]
}
